The record followed here is paper PMC12508063, “Chloroindazole based estrogen receptor β ligands with favorable pharmacokinetics promote functional remyelination and visual recovery” (Scientific Reports, 2025).

Like-named read-outs stand apart in the source and are kept apart here.

Series [1] concerns EAE optic nerve gene transcripts. Description: NanoString nCounter Mouse Neuropathology gene expression, optic nerve RNA. The format is in vivo. On the procedure:
RNA Extraction and NanoString nCounter Gene Expression Assay: RNA was isolated from a single optic nerve of normal, EAE+Vehicle, and EAE+K102 mice[28]. The RNA samples were analyzed using the nCounter Mouse Neuropathology panel (NanoString Technologies) (Supplementary Data Set 1). Fold changes were calculated using normalized data for the three groups (Supplementary Data Set 2).
Genes associated with myelination, inflammation, and axon health are altered in EAE optic nerves compared to normal optic nerves. To examine how K102 treatment affects these gene transcripts, RNA from treated optic nerves was analyzed using the NanoString Neuropathology gene expression panel (Fig. 7A, Supplementary Data Set 1). […] Ccr2 is a chemokine receptor involved in recruiting immune cells to sites of inflammation. Cpt1b (carnitine palmitoyltransferase 1B) is an enzyme critical for fatty acid oxidation.
RNA Extraction and NanoString nCounter Gene Expression Assay: RNA was isolated from a single optic nerve as described previously in(9). Optic nerves were isolated from normal, EAE+V, and EAE+K102 mice. RNA isolates were run on the nCounter Mouse Neuropathology panel (NanoString Technologies, Seattle, WA). Normalized data was used to calculate fold change for all three groups.
For nCounter gene expression analysis, normalized counts were used to calculate log2 fold changes. Welch’s t-test (unequal variance t-test) was applied when comparing NM vs. EAE+V and EAE+V vs. EAE+K102, as both sample sizes and variances differed between groups. Significance levels were set as follows: *p < 0.05, **p < 0.01, ***p < 0.001, and ****p < 0.0001. Summary of statistics for Figures is in a table format in the supplementary sections Supplementary TableS7-S12 […]

Series [2] can be described thus: Liver microsome stability (mouse). A general note: Microsomes from liver hold many membrane-bound enzymes, among them those of drug oxidation.
In series [3] the test system is EAE mice optic tract. Description: Optic tract IHC in EAE. The class given is in vivo, mouse. From the text: Animal Perfusions, tissue preparation, and IHC: Mice were deeply anesthetized and euthanized with isoflurane and intracardially perfused with ice‐cold PBS followed by 10% formalin in PBS (Fisher Scientific, Hampton, NH). Eyes, optic nerves, and brain were collected and processed for IHC as previously described[23],[28]. Antibody details are listed in Supplementary Table S6.
Imaging and Quantification: Retina, optic nerve, and brain sections were imaged using an Olympus BX61 spinning disk confocal microscope with 10× and 40× objectives[23],[28]. Z-stack images were captured and processed using Slidebook 6 and cellSense software. Immunofluorescence intensity and cell counts were quantified using NIH ImageJ, and statistical analysis was performed with GraphPad Prism.
Treatment with K102 alleviated EAE-induced demyelination relative to vehicle-treated mice.
Perfusions, tissue preparation, and IHC: Mice were deeply anesthetized with isoflurane and intracardially perfused with ice‐cold PBS followed by 10% formalin in PBS (Fisher Scientific, Hampton, NH). Eyes, optic nerves, and brain were collected and processed for IHC as previously described(8, 9). Antibody details are listed in Supplementary Table S6.
Imaging and Quantification: Retina, optic nerve, and brain sections were imaged using an Olympus BX61 spinning disk confocal microscope equipped with 10x and 40x Super Apochromat objectives (Olympus America Inc., Cypress, CA) connected to a camera (Hamamatsu Orca‐R2). Z‐stack images were acquired, and projection images were compiled using Slidebook 6 and cellSense software (Intelligent Imaging Innovations Inc, Santa Monica, CA). Immunofluorescence intensity and cell numbers were assessed with NIH ImageJ software (v1. 50i http://rsb.info.nih.gov/ij/) and quantified. Results from all counts were analyzed in GraphPad Prism for statistical significance.

Series [4] is described as follows: Plasma protein binding (mouse).
Series [5] can be described thus: Oral PK of K102 at 40 mg/kg in female monkeys. The format is in vivo, cynomolgus monkey. The settings on record: female monkey, PO 40 mg/kg, mean.
Series [6] can be described thus: Liver microsome stability (human).
The conditions of series [7]: hepatocytes.
Series [8] has as its target CYP3A4 (Homo sapiens, UniProt P08684). The conditions noted are these: 10 µM.
For series [9] the following is noted: plasma.
The conditions of series [10]: microsomes.
For series [11] the following is noted: hepatocytes. The source holds these as a separate data set.
For series [12] the following is noted: microsomes. This is another data set of the same source.

Sequence of CYP3A4 (P08684 whole entry): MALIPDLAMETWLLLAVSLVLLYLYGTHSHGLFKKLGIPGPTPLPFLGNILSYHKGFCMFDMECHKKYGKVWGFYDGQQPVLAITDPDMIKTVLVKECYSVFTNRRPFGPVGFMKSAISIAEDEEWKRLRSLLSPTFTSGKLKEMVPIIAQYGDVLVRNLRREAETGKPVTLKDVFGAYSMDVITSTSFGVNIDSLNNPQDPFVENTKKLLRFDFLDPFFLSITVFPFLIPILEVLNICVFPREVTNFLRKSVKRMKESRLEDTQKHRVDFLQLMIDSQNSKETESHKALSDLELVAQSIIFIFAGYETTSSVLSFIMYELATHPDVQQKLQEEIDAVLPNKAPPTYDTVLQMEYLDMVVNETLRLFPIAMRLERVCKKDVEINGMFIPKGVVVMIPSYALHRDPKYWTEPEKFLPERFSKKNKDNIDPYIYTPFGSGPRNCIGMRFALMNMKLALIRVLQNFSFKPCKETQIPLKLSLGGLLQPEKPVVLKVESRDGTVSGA

Turning to `Cc1cc(O)ccc1-n1nc2ccc(O)cc2c1Cl` [Compound K102, IndCl-o-Me], the “Ccr2 and Cpt1b transcripts vs vehicle-treated optic nerves” value in series [1] (2 of 770 genes) is listed as “significantly altered”. In series [1] (optic nerve, EAE), the “Arc and Pvalb transcripts vs vehicle” value is recorded as “increased”; the “Sox10 and Olig2 transcripts relative to vehicle” value was “increase”; the “complement system genes C1qa, C1qb, C1qc, and C3” value is listed as “did not significantly impact”. Further, in series [1] (vs untreated EAE optic nerves), the “mitochondrial-related genes Pink1, Tfam, Mfn2, Park7, and Sirt2” value is recorded as “significant increase”. In [2] (30 min), the “Liver Microsome Stability (Mouse) % Remaining (30 min)” value is 30.18%. For the same compound, in [2] (mouse, microsomes), the “Liver Microsome Stability (Mouse) CLint” value is 40.80 µL/min/mg protein and the “Liver Microsome Stability (Mouse) t1/2” value is listed as 17.12 min. Besides, in series [3], the “GFAP, mean value” was “significantly reduced”; the “Iba1, mean value” is “significantly reduced”; the “MBP, mean value” was “alleviated”; the “NFM, mean value” is “significantly increased”. Also, the “SARM1, mean value” in [3] was “did not produce a significant change”. Moreover, in series [3] (listed as 102), the “GFAP, mean value” is listed as 14.14; the “Iba1, mean value” was 9.623; the “MBP, mean value” is given as 27.62; the “NFM, mean value” is recorded as 18.64. Besides, the “SARM1, mean value” in series [3] (listed as 102) was determined as 11.45. Besides, in series [4], the “Protein Binding (% Bound) Mouse” value is given as 96.81%. Further, in [5], the AUCInf/D is 59.3 kg·ng·h/mL/mg; the AUClast came out at 2373.0 ng·h/mL; the Cmax (as a rule, the peak of the concentration-time curve) stood at 355.3 ng/mL; the Tmax (commonly the time at which the peak concentration occurs) came to 79.8 min. Besides, the “Liver Microsome Stability (Human) % Remaining (30 min)” value in series [6] (30 min) was determined as 78.03%. Also, the “Liver Microsome Stability (Human) CLint” value in series [6] (human, microsomes) came out at 8.47 µL/min/mg protein.

On to `Oc1ccc(-n2nc3ccc(O)cc3c2Cl)c(O)c1` [Compound K110, IndCl-o-OH], for which, in [7], the “Hepatocyte Stability (Mouse) t1/2” value was 6.15 min. Also, the “Hepatocyte Stability (Mouse) % Remaining (15 min)” value in series [7] (0.25 h) came out at 19.46%. Besides, the “CYP Inhibition Percentage CYP3A4-T” value in series [8] turned out to be 45.13%. Further, the “Protein Binding (% Bound) Mouse” value in series [9] amounted to 91.79%. Also, the “Liver Microsome Stability (Human) CLint” value in [10] is on record as 13.64 µL/min/mg protein. For the same compound, in series [10] (0.5 h), the “Liver Microsome Stability (Human) % Remaining (30 min)” value came out at 66.88%. The “Hepatocyte Stability (Human) CLint” value in series [11] was 12.69 µL/min/mg protein. Besides, the “Hepatocyte Stability (Human) % Remaining (15 min)” value in series [11] (0.25 h) is recorded as 87.14%. In series [12], the “Liver Microsome Stability (Mouse) CLint” value turned out to be 35.28 µL/min/mg protein and the “Liver Microsome Stability (Mouse) t1/2” value was 20.06 min. Moreover, the “Liver Microsome Stability (Mouse) % Remaining (30 min)” value in series [12] (0.5 h) is given as 35.72%.
